This note sets out measurements from PubChem BioAssay (NCI).

Some test systems named below: CCRF-CEM leukemia; HCT-15 colon; MALME-3M melanoma; TK-10 renal; 786-0 renal; PC-3 prostate; LOX IMVI melanoma; NCI-H522 lung; HL-60(TB) leukemia; K-562 leukemia; MDA-MB-231 breast.
Common to all, as to assay: growth of human tumour cells (NCI), 48 h

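Assay format: 96-well plates, 48-hour exposure. Abbreviation: GI50, concentration required for 50% inhibition of growth. At the TGI there is no net growth.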

On to `Cc1ccc(N2CCc3c(C)c(C#N)c4nc5ccccc5n4c32)cc1`, for which the TGI in the test on CCRF-CEM leukemia, with HCT-15 colon, in the test on MALME-3M melanoma, with TK-10 renal, with 786-0 renal and in the test on PC-3 prostate was > 100 µM each time. Further, the TGI with LOX IMVI melanoma, with NCI-H522 lung and in the test with HL-60(TB) leukemia was > 100 µM each time.

For the compound `O=c1c(C=Nc2ccc([N+](=O)[O-])cc2)c(O)n(-c2ccccc2)c(=O)n1-c1ccccc1`, the TGI in the test with CCRF-CEM leukemia, with HCT-15 colon, with MALME-3M melanoma, in the test on K-562 leukemia, in the test with TK-10 renal and in the test on MDA-MB-231 breast was > 100 µM in each case. The TGI with 786-0 renal, in the test on PC-3 prostate, in the test on LOX IMVI melanoma and in the test with NCI-H522 lung was > 100 µM throughout.

`CN(C)CCSC(=Nc1ccccc1)N1CCCCC1`: the TGI with CCRF-CEM leukemia was > 100 µM; in the test on HCT-15 colon it was 30 µM; with MALME-3M melanoma it was 35.2 µM; in the test on K-562 leukemia, > 100 µM; in the test with TK-10 renal it was 33.1 µM; in the test on 786-0 renal, 30 µM. Besides, the TGI in the test with LOX IMVI melanoma came to 30 µM; in the test with NCI-H522 lung, 29 µM; in the test with HL-60(TB) leukemia it was 49.5 µM.

In the case of `Cc1cc(-c2nc3ccccc3s2)ccc1NC(=O)[C@H](C)N`, the TGI was 24.1 µM in the test on CCRF-CEM leukemia; 37.1 µM in the test with HCT-15 colon; 51.1 µM with MALME-3M melanoma; 23.2 µM in the test with K-562 leukemia; 32.6 µM in the test on MDA-MB-231 breast; 23.7 µM in the test on 786-0 renal. In addition, the TGI in the test on PC-3 prostate is 26.7 µM; in the test with LOX IMVI melanoma, > 100 µM; with NCI-H522 lung, 75.8 µM.

For the compound `OC1(c2cc3ccccc3s2)CCCCC1`, the TGI in the test on CCRF-CEM leukemia was 66.7 µM; with HCT-15 colon it was > 100 µM; in the test with K-562 leukemia, > 100 µM; in the test with TK-10 renal, > 100 µM; in the test on MDA-MB-231 breast, 87.5 µM; in the test on 786-0 renal, > 100 µM. The TGI with LOX IMVI melanoma was > 100 µM; in the test with NCI-H522 lung it was 65.6 µM; with HL-60(TB) leukemia, > 100 µM.

On to `[N-]=[N+]=NCc1cccc(Nc2cc(=O)[nH]c(=O)[nH]2)c1`, for which the TGI in the test with CCRF-CEM leukemia, with HCT-15 colon, with MALME-3M melanoma, in the test with K-562 leukemia, in the test with TK-10 renal and in the test on 786-0 renal was > 100 µM each time. In addition, the TGI in the test on LOX IMVI melanoma, in the test with NCI-H522 lung and with HL-60(TB) leukemia was > 100 µM each time.

Take `Cc1cccc(NC(=O)C(=O)C(C(=O)c2ccccc2F)C2OC(=O)c3ccccc32)c1Cl` (stereo unspecified): the TGI in the test on CCRF-CEM leukemia is 83 µM; in the test on HCT-15 colon it was 73.3 µM; with K-562 leukemia, > 100 µM; in the test on TK-10 renal, > 100 µM; with LOX IMVI melanoma, 43.3 µM; in the test on NCI-H522 lung it was 79.9 µM. In addition, the TGI with HL-60(TB) leukemia came to 56.2 µM.

Take `C1CCC(OC2CSC2)OC1` (stereo unspecified): the TGI in the test on CCRF-CEM leukemia, in the test with HCT-15 colon, with K-562 leukemia, with TK-10 renal, with MDA-MB-231 breast and in the test with PC-3 prostate was > 100 µM in each case. For the same compound, the TGI in the test with LOX IMVI melanoma and with NCI-H522 lung was > 100 µM each time.

As to `c1ccc2c(c1)CCc1cc3cc4c(nc3nc1-2)-c1ccccc1CC4`, the TGI with CCRF-CEM leukemia, in the test with HCT-15 colon, in the test on MALME-3M melanoma, in the test on K-562 leukemia, with TK-10 renal and in the test with 786-0 renal was > 100 µM throughout. The TGI in the test on LOX IMVI melanoma, with NCI-H522 lung and with HL-60(TB) leukemia was > 100 µM each time.

On to `CC(CO)C1C[C@H](O)[C@@]2(C)CC(=O)C=C(CO)[C@@H]2C1` (stereo partly specified), for which the TGI with HCT-15 colon, with TK-10 renal, in the test on MDA-MB-231 breast, in the test with 786-0 renal, in the test with LOX IMVI melanoma and in the test on HL-60(TB) leukemia was > 100 µM each time.

With `N#C[S-].[Nd+3].c1ccc(-c2ccccn2)nc1.c1ccc(-c2ccccn2)nc1.c1ccc(-c2ccccn2)nc1`, the GI50 in the test on HCT-15 colon is 3.82 µM; with MALME-3M melanoma, 18.5 µM; with TK-10 renal it was 5.05 µM; with LOX IMVI melanoma, 4.23 µM. Further, the TGI was > 100 µM in the test on HCT-15 colon, 68.4 µM in the test on MALME-3M melanoma, > 100 µM with TK-10 renal and > 100 µM in the test on LOX IMVI melanoma.

In the case of `O=[Se](=O)c1ccccc1.O=[Se](=O)c1ccccc1.[Cu]`, the GI50 in the test with CCRF-CEM leukemia was 7.98 µM; with HCT-15 colon it was 16.4 µM; in the test on MALME-3M melanoma, 16.8 µM; in the test with K-562 leukemia, 13.4 µM; in the test with LOX IMVI melanoma it was 7.65 µM; in the test on NCI-H522 lung, 17.3 µM. Further, in the test on HL-60(TB) leukemia, the GI50 was 6.51 µM. Besides, the TGI in the test with CCRF-CEM leukemia worked out at 62.7 µM; in the test on HCT-15 colon, 34.1 µM; with MALME-3M melanoma, 31.7 µM; with K-562 leukemia, 47.4 µM; in the test on LOX IMVI melanoma it was 19.5 µM; in the test on NCI-H522 lung, 31.5 µM. Moreover, the TGI with HL-60(TB) leukemia is 15.4 µM.

In the case of `CCCCc1ccc(Nc2ncc3[nH]cnc3n2)cc1`, the TGI with CCRF-CEM leukemia was > 100 µM; in the test on HCT-15 colon it was 38.5 µM; in the test with MALME-3M melanoma, 40.6 µM; in the test with K-562 leukemia it was > 100 µM; with TK-10 renal, 30.9 µM; with MDA-MB-231 breast it was 30.3 µM. Further, the TGI is 54.3 µM with 786-0 renal, 37.6 µM in the test with LOX IMVI melanoma, 55 µM with NCI-H522 lung and > 100 µM with HL-60(TB) leukemia.

Turning to `COc1cccc(/C=N/[N-]C(N)=O)c1[O-].[Ni+2].[OH3+].c1cnc2c(c1)ccc1cccnc12`, the TGI in the test on CCRF-CEM leukemia, in the test on HCT-15 colon, with MALME-3M melanoma, in the test on K-562 leukemia, in the test on TK-10 renal and with 786-0 renal was > 100 µM throughout. For the same compound, the TGI in the test on LOX IMVI melanoma and in the test on HL-60(TB) leukemia was > 100 µM throughout. The GI50 in the test with HL-60(TB) leukemia was 69.5 µM.
